ChEMBL document CHEMBL4715750, “Synthesis and in vitro, ex-vivo and in vivo activity of hybrid compounds linking a potent ROS and RNS scavenger activity with diverse substrates addressed to pass across the blood-brain barrier” (Eur J Med Chem, 2016)
Activity calls are given as the source filed them. No cut-off for these calls is given here.

Assays:
[1] = Antioxidant activity assessed as DPPH radical scavenging activity incubated for 60 mins in absence of light; type: functional
[2] = Cytotoxicity against human SH-SY5Y cells assessed as cell viability at 1.6 uM measured after 24 hrs by MTT assay relative to control; type: cell-based; settings: read-out: Activity
[3] = Drug concentration in Sprague-Dawley rat brain at 0.2 mmol/Kg, ip measured after 1 hr by HPLC based fluorimetric analysis; type: ADME, organism-based; settings: in vivo
[4] = Cytotoxicity against human SH-SY5Y cells assessed as cell viability at 6.3 uM measured after 24 hrs by MTT assay relative to control; type: cell-based; settings: read-out: Activity
[5] = Cytotoxicity against human SH-SY5Y cells assessed as cell viability at 6.3 uM measured after 2 hrs by MTT assay relative to control; type: cell-based; settings: read-out: Activity
[6] = Cytotoxicity against human SH-SY5Y cells assessed as cell viability at 12.5 uM measured after 24 hrs by MTT assay relative to control; type: cell-based; settings: read-out: Activity
[7] = Cytotoxicity against human SH-SY5Y cells assessed as cell viability at 25 uM measured after 24 hrs by MTT assay relative to control; type: cell-based; settings: read-out: Activity
[8] = Cytotoxicity against human SH-SY5Y cells assessed as cell viability at 50 uM measured after 2 hrs by MTT assay relative to control; type: cell-based; settings: read-out: Activity
[9] = Cytotoxicity against human SH-SY5Y cells assessed as cell viability at 3.1 uM measured after 24 hrs by MTT assay relative to control; type: cell-based; settings: read-out: Activity
[10] = Drug concentration in Sprague-Dawley rat plasma at 0.2 mmol/Kg, ip measured after 1 hr by HPLC based fluorimetric analysis; type: ADME, organism-based
[11] = system: SH-SY5Y; assay: Antioxidant activity in human SH-SY5Y cells assessed as inhibition of H2O2-induced DCFH oxidation measured after 1 hr by DCFH-DA dye based fluorescence assay; type: functional, cell-based
[12] = Permeability of the compound at pH 7.4 by PAMPA-BBB assay; type: ADME; settings: read-out: permeability
[13] = Retention time in Sprague-Dawley rat brain by HPLC based fluorimetric analysis; type: ADME, tissue-based
[14] = Cytotoxicity against human SH-SY5Y cells assessed as cell viability at 0.8 uM measured after 24 hrs by MTT assay relative to control; type: cell-based; settings: read-out: Activity
[15] = Cytotoxicity against human SH-SY5Y cells assessed as cell viability at 50 uM measured after 24 hrs by MTT assay relative to control; type: cell-based; settings: read-out: Activity
[16] = Cytotoxicity against human SH-SY5Y cells assessed as cell viability at 100 uM measured after 2 hrs by MTT assay relative to control; type: cell-based; settings: read-out: Activity
[17] = Cytotoxicity against human SH-SY5Y cells assessed as cell viability at 100 uM measured after 24 hrs by MTT assay relative to control; type: cell-based; settings: read-out: Activity
[18] = Cytotoxicity against human SH-SY5Y cells assessed as cell viability at 12.5 uM measured after 2 hrs by MTT assay relative to control; type: cell-based; settings: read-out: Activity
[19] = Cytotoxicity against human SH-SY5Y cells assessed as cell viability at 1.6 uM measured after 2 hrs by MTT assay relative to control; type: cell-based; settings: read-out: Activity
[20] = Cytotoxicity against human SH-SY5Y cells assessed as cell viability at 3.1 uM measured after 2 hrs by MTT assay relative to control; type: cell-based; settings: read-out: Activity
[21] = Cytotoxicity against human SH-SY5Y cells assessed as cell viability at 25 uM measured after 2 hrs by MTT assay relative to control; type: cell-based; settings: read-out: Activity
[22] = Cytotoxicity against human SH-SY5Y cells assessed as cell viability at 0.8 uM measured after 2 hrs by MTT assay relative to control; type: cell-based; settings: read-out: Activity
[23] = system: SH-SY5Y; assay: Cytoprotective activity against DMSO-induced toxicity in human SH-SY5Y cells; type: functional, cell-based

SMILES	IC50 [1]	IC50 [11]	Papp [12]	viability at 24 h, 1.6 µM [2]	viability at 24 h, 6.3 µM [4]	viability at 2 h, 6.3 µM [5]	viability at 24 h, 12.5 µM [6]	viability at 24 h, 25 µM [7]	viability at 2 h, 50 µM [8]	viability at 24 h, 3.1 µM [9]	Activity [11]	viability at 24 h, 0.8 µM [14]	viability at 24 h, 50 µM [15]	viability at 2 h, 100 µM [16]	viability at 24 h, 100 µM [17]	viability at 2 h, 12.5 µM [18]	viability at 2 h, 1.6 µM [19]	viability at 2 h, 3.1 µM [20]	viability at 2 h, 25 µM [21]	viability at 2 h, 0.8 µM [22]	further results
COc1cc2c(cc1O)CCC(C)(CCNC(C)=O)O2 (stereo unspecified)	14.3 µM	50.3 µM	0.52 ×10⁻⁶ cm/s	78.7%	87.8%	79.4%	83.5%	76.2%	81.2%	90.7%	Dose-dependent effect	89%	66.5%	66.6%	57.9%	84.8%	100%	82.3%	89.2%	91.3%	Ct [3]: 2.3 nmol/g; concentration at 1 h [10]: 3 µM; Retention_time [13]: 4 min
COc1cc2c(cc1O)CCC(C)(CC(=O)N[C@@H](Cc1ccccc1)C(=O)O)O2 (stereo partly specified)	14.9 µM	44.5 µM	0.49 ×10⁻⁶ cm/s	100%	87.5%	100%	82.3%	81.1%	100%	93%	Dose-dependent effect	100%	89.5%	72.2%	59.1%	100%	100%	100%	100%	99%	Ct [3]: 0 nmol/g; concentration at 1 h [10]: 0.9 µM; Activity [23]: Active
COc1cc2c(cc1O)CCC(C)(CC(=O)NCCc1ccc(O)c(O)c1)O2 (stereo unspecified)	6.9 µM	21.6 µM	0.2 ×10⁻⁶ cm/s	88.9%	98.4%	100%	84.2%	79.1%	100%	94.8%	Dose-dependent effect	100%	77.5%	100%	58.4%	100%	100%	100%	100%	100%	
COc1cc2c(cc1O)CCC(C)(CC(=O)N[C@@H](C)C(=O)O)O2 (stereo partly specified)	14.7 µM	92.6 µM	0.06 ×10⁻⁶ cm/s	100%	94.6%	86.4%	100%	100%	86.6%	100%	Dose-dependent effect	100%	100%	70.1%	68.5%	85%	86.9%	79.5%	89.5%	87.6%	Activity [23]: Active
COc1cc2c(cc1O)CCC(C)(CC(N)C(=O)O)O2 (stereo unspecified)	14.1 µM	> 200 µM	0.04 ×10⁻⁶ cm/s	100%	100%	100%	100%	88.5%	100%	100%	Dose-dependent effect	82.7%	85.7%	87.8%	60.1%	100%	100%	100%	100%	100%	Ct [3]: 15.8 nmol/g; concentration at 1 h [10]: 52.3 µM; Retention_time [13]: 7 min; Activity [23]: Active
COc1cc2c(cc1O)CCC(C)(CC(=O)N[C@@H](Cc1ccc(O)cc1)C(=O)O)O2 (stereo partly specified)	19.6 µM	50 µM		89.5%	83.3%	99.7%	81.6%	82.7%	95.7%	89.9%	Dose-dependent effect	79.7%	78.6%	75.8%	67.5%	92.5%	94.5%	100%	95.5%	92.2%	concentration at 1 h [10]: 7 µM

The next lines start with results.

IC50 [1]	IC50 [11]	Papp [12]	SMILES	viability at 24 h, 1.6 µM [2]	viability at 24 h, 6.3 µM [4]	viability at 2 h, 6.3 µM [5]	viability at 24 h, 12.5 µM [6]	viability at 24 h, 25 µM [7]	viability at 2 h, 50 µM [8]	viability at 24 h, 3.1 µM [9]	Activity [11]	viability at 24 h, 0.8 µM [14]	viability at 24 h, 50 µM [15]	viability at 2 h, 100 µM [16]	viability at 24 h, 100 µM [17]	viability at 2 h, 12.5 µM [18]	viability at 2 h, 1.6 µM [19]	viability at 2 h, 3.1 µM [20]	viability at 2 h, 25 µM [21]	viability at 2 h, 0.8 µM [22]	further results
15.5 µM	> 200 µM	1.18 ×10⁻⁶ cm/s	COc1cc2c(cc1O)CCC(C)(CC(=O)N[C@@H](Cc1c[nH]c3ccccc13)C(=O)O)O2 (stereo partly specified)	96%	94.9%	100%	91.2%	90%	95.2%	100%	Dose-dependent effect	94.6%	92.8%	95.4%	65.9%	100%	97.2%	97.9%	100%	94.8%	Activity [23]: Active
10.5 µM	71.2 µM	0.28 ×10⁻⁶ cm/s	COc1cc2c(cc1O)CCC(C)(CC(N)=O)O2 (stereo unspecified)	100%	100%	80.8%	100%	100%	74.9%	100%	Dose-dependent effect	96.7%	99.2%	54.7%	51.4%	85.8%	96.1%	84.8%	83.6%	88.2%	Activity [23]: Active
13.1 µM	35.6 µM		COc1cc2c(cc1O)CCC(C)(CCNC(=O)C[C@H]1OC(O)[C@H](O)[C@@H](O)[C@@H]1O)O2 (stereo partly specified)	96.7%	87.2%	100%	90.6%	87.9%	99.6%	88.1%	Dose-dependent effect	96.1%	86.6%	77.6%	56.6%	100%	95.3%	93.3%	100%	88.9%	Ct [3]: 3.1 nmol/g; concentration at 1 h [10]: 26 µM; Retention_time [13]: 2 min; Activity [23]: Active
17.3 µM	43.8 µM	0.03 ×10⁻⁶ cm/s	COc1cc2c(cc1O)CCC(C)(CC(=O)N[C@H](C(=O)O)C(C)C)O2 (stereo partly specified)	82.1%	82%	99.7%	82.6%	76.1%	100%	79.1%	Dose-dependent effect	75.7%	79.3%	85.9%	61%	96.4%	92.6%	98%	96.6%	93.3%	
